Results on six molecules are retold here after patent publication US12139492B2 (Endotarget Inc., priority 2021, dated 2024).

In general, Dmax refers to the largest share of the target that was removed. Read a low Dmax as a partial loss of target. A word on the DC50: it is the concentration at which degradation of the target reaches its halfway point. Higher therefore signals a less potent degrader.

Molecules are shown by their SMILES.

What all share (assay type): cell-based
The target in one assay is BTK (Homo sapiens, UniProt Q06187). Put plainly: BTK degradation, DC50 and Dmax of Table 1 (cell line not given). Further details: endogenous in cells. The note with it: for DC50: concentration giving 50% reduction of BTK expression level.
BTK, sequence (Q06187 whole entry): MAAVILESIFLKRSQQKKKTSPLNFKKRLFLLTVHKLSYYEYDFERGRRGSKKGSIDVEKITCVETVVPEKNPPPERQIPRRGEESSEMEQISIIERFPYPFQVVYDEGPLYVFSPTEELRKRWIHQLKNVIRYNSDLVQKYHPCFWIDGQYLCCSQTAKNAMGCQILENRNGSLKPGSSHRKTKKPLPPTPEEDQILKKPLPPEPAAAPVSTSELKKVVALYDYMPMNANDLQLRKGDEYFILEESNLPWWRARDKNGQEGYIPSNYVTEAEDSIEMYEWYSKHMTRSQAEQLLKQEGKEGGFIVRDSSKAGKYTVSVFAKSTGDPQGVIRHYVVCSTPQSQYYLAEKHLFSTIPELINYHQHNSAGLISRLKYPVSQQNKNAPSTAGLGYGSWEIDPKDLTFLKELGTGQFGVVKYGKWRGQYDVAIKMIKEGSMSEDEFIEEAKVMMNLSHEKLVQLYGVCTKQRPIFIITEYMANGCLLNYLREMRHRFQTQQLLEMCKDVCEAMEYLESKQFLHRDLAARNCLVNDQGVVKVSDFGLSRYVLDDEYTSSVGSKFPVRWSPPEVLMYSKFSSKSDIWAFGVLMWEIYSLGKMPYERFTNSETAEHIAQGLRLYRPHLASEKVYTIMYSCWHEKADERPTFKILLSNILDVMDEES
The test system of another assay is Mino cells. Put plainly: Antiproliferative effect, MTS cell viability assay, Mino cells. The note with it: Homo sapiens, MINO, Mino mantle cell lymphoma cells; read-out: IC50 (anti-proliferation) Mino cells. In outline: (§1)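 Cells were exposed to compound at 0, 0.001, 0.01, 0.1, 1 and 10 μM for 72 h. Viability was then measured by MTS assay, reading formazan produced by metabolically active cells as absorbance at 490 nm.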
In general terms: Formazan colour is commonly taken as a measure of viable cells.

For the next assay, the system named is JeKo-1 cells. The assay is described as follows: Antiproliferative effect, MTS cell viability assay, JeKo-1 cells. As to conditions: Homo sapiens; JeKo-1 mantle cell lymphoma cells; read-out: IC50 (anti-proliferation) JeKO-1 cells. Put shortly: as §1

The molecule `Nc1ncnc2c1c(-c1ccc(Oc3ccccc3)cc1)nn2C1CCN(CC2CCN(C(=O)N3CCC(CCN4CCN(c5ccc6c(c5)CN(C5CCC(=O)NC5=O)C6=O)CC4)CC3)CC2)CC1` (stereo not drawn) [Compound 44, 3-(5-(4-(2-(1-(4-((4-(4-amino-3-(4-phenoxyphenyl)-1H-pyrazolo[3,4-d]pyrimidin-1-yl)piperidin-1-yl)methyl)piperidine-1-carbonyl)piperidin-4-yl)ethyl)piperazin-1-yl)-1-oxoisoindolin-2-yl)piperidine-2,6-dione] came in with a maximal degradation (Dmax) on BTK of more than 90%. On BTK, the DC50 lay in the range of 0.01 to 0.05 µM. In addition, the IC50 with Mino cells and in the assay on JeKo-1 cells was 1 to 10 µM in each case.

As for `Nc1ncnc2c1c(-c1ccc(Oc3ccccc3)cc1)nn2[C@@H]1CCCN(C(=O)N2CCN(c3ccc4c(c3)CN(C3CCC(=O)NC3=O)C4=O)CC2)C1` (stereo partly drawn) [Compound 46, 3-(5-(4-((R)-3-(4-amino-3-(4-phenoxyphenyl)-1H-pyrazolo[3,4-d]pyrimidin-1-yl)piperidine-1-carbonyl)piperazin-1-yl)-1-oxoisoindolin-2-yl)piperidine-2,6-dione], the Dmax on BTK is more than 50%. In addition, the DC50 at BTK was more than 0.05 µM. Besides, the IC50 with Mino cells and in the assay with JeKo-1 cells was more than 10 µM in each case.

At BTK, `Nc1ncnc2c1c(-c1ccc(Oc3ccccc3)cc1)nn2[C@@H]1CCCN(C(=O)N2CCC(c3ccc4c(c3)C(=O)N(C3CCC(=O)NC3=O)C4=O)CC2)C1` (stereo partly drawn) [Compound 47, 5-(1-((R)-3-(4-amino-3-(4-phenoxyphenyl)-1H-pyrazolo[3,4-d]pyrimidin-1-yl)piperidine-1-carbonyl)piperidin-4-yl)-2-(2,6-dioxopiperidin-3-yl)isoindoline-1,3-dione] returned a Dmax of more than 50% and a DC50 of more than 0.05 µM. Besides, the IC50 with Mino cells is more than 10 µM. For the same molecule, the IC50 in the assay with JeKo-1 cells was more than 10 µM.

With `Nc1ncnc2c1c(-c1ccc(Oc3ccccc3)cc1)nn2[C@@H]1CCCN(C(=O)N2CCC(c3ccc4c(c3)CN(C3CCC(=O)NC3=O)C4=O)CC2)C1` (stereo partly drawn) [Compound 48, 3-(5-(1-((R)-3-(4-amino-3-(4-phenoxyphenyl)-1H-pyrazolo[3,4-d]pyrimidin-1-yl)piperidine-1-carbonyl)piperidin-4-yl)-1-oxoisoindolin-2-yl)piperidine-2,6-dione], at BTK, the greatest degradation seen (Dmax) is more than 50% and the DC50 was more than 0.05 µM. The IC50 in the assay on Mino cells was more than 10 µM. The IC50 in the assay on JeKo-1 cells was more than 10 µM.

At BTK, `Nc1ncnc2c1c(-c1ccc(Oc3ccccc3)cc1)nn2[C@@H]1CCCN(C(=O)N2CCC(C3CCN(c4ccc5c(c4)CN(C4CCC(=O)NC4=O)C5=O)CC3)CC2)C1` (stereo partly drawn) [Compound 50, 3-(5-(1′-((R)-3-(4-amino-3-(4-phenoxyphenyl)-1H-pyrazolo[3,4-d]pyrimidin-1-yl)piperidine-1-carbonyl)-[4,4′-bipiperidin]-1-yl)-1-oxoisoindolin-2-yl)piperidine-2,6-dione] had a Dmax of more than 90%. In addition, the DC50 on BTK was 0.01 to 0.05 µM. For the same molecule, the IC50 in the assay on Mino cells and in the assay on JeKo-1 cells was 1 to 10 µM in each case.

At BTK, `Nc1ncnc2c1c(-c1ccc(Oc3ccccc3)cc1)nn2[C@@H]1CCCN(C(=O)N2CCC(N3CCC(c4ccc5c(c4)C(=O)N(C4CCC(=O)NC4=O)C5=O)CC3)CC2)C1` (stereo partly drawn) [Compound 53, 5-(1′-((R)-3-(4-amino-3-(4-phenoxyphenyl)-1H-pyrazolo[3,4-d]pyrimidin-1-yl)piperidine-1-carbonyl)-[1,4′-bipiperidin]-4-yl)-2-(2,6-dioxopiperidin-3-yl)isoindoline-1,3-dione] showed a Dmax of more than 90% and a DC50 of less than 0.01 µM. For the same molecule, the IC50 in the assay with Mino cells is less than 1 µM. In the assay on JeKo-1 cells, the IC50 was in the range of 1 to 10 µM.
